The values that follow come from patent US20100048503A1, “COMPOSITION FOR TREATMENT OF PANCREATIC CANCER” (Eisai R & D Management Co., Ltd., priority 2007, published 2010).

For test [1], the system named is Human pancreatic cancer cell line AsPC-1. The experiment in a line: Combination use with gemcitabine hydrochloride in subcutaneous transplanted (xenograft) model in nude mouse. The test is classed as in vivo. Conditions: AsPC-1 xenograft; for Relative tumor volume on Day 29 Average ± standard deviation: nude mouse. As for the experimental part: Human pancreatic cancer cell line AsPC-1 (purchased from ATCC) was cultured in RPMI1640 (containing 10% FBS) in a 5% carbon dioxide gas incubator at 37° C. to about 80% confluence, and then the cells were collected with trypsin-EDTA. A 5×10^7 cells/mL suspension was prepared with a phosphate buffer, and each 0.1 mL of the resulting cell suspension was subcutaneously transplanted to a nude mouse at the side of its body. Eleven days after the transplantation, 4-(3-chloro-4-(cyclopropylaminocarbonyl)aminophenoxy)-7-methoxy-6-quinolinecarboxamide (3, 10 or 30 mg/kg, once a day for four weeks, oral) and gemcitabine hydrochloride (purchased from Eli Lilly Japan) (200 mg/kg, four times every three days, intravenous) were administered alone or in combination. The major and minor axes of tumors were measured with Digimatic caliper (Mitsutoyo Corporation), and tumor volumes and relative tumor volumes were calculated according to the following formulae: […] Relative Tumor Volume (RTV)=Tumor volume on measurement day/Tumor volume on the first administration day. […] The first day of administration was considered Day 1.

Test [2] shares this test system. The experiment in a line: Combination use with erlotinib hydrochloride in subcutaneous transplanted (xenograft) model in nude mouse. The test is classed as in vivo. Conditions: oral, AsPC-1 xenograft; for Relative tumor volume on Day 29 Average ± standard deviation: once a day for four weeks, nude mouse. As for the experimental part: Human pancreatic cancer cell line AsPC-1 (purchased from ATCC) was cultured in RPMI1640 (containing 10% FBS) in a 5% carbon dioxide gas incubator at 37° C. to about 80% confluence, and then the cells were collected with trypsin-EDTA. A 5×10^7 cells/mL suspension was prepared with a phosphate buffer, and each 0.11 mL of the resulting cell suspension was subcutaneously transplanted to a nude mouse at the side of its body. Ten days after the transplantation, 4-(3-chloro-4-(cyclopropylaminocarbonyl)aminophenoxy)-7-methoxy-6-quinolinecarboxamide (10 mg/kg, once a day for four weeks) and erlotinib hydrochloride (50 mg/kg, once a day for four weeks) were orally administered alone or in combination. The major and minor axes of tumors were measured with Digimatic caliper (Mitsutoyo Corporation), and tumor volumes and relative tumor volumes were calculated according to the following formulae: […] Relative Tumor Volume (RTV)=Tumor volume on measurement day/Tumor volume on the first administration day. […] The first day of administration was considered Day 1.

[3] abbreviates: Compound A 3, 10 or 30 mg/kg oral in combination with gemcitabine hydrochloride 200 mg/kg intravenous.
The mark [4] stands for this setting: Compound A 10 mg/kg in combination with erlotinib hydrochloride 50 mg/kg.

Where a name gives a salt, the structure may show the parent alone.

Take `Nc1ccn([C@@H]2O[C@H](CO)C(O)C2(F)F)c(=O)n1` (single isomer, unassigned; (+)) [Gemcitabine hydrochloride, (+)-2′-deoxy-2′,2′-difluorocytidene, reference compound]: the “Relative tumor volume on Day 29 Average ± standard deviation” value in test [1] (Gemcitabine hydrochloride 200 mg/kg alone, four times every three days, intravenous) is recorded as 3.41 ± 0.41.
Turning to `C#Cc1cccc(Nc2ncnc3cc(OCCOC)c(OCCOC)cc23)c1` [Erlotinib hydrochloride, 4-(3-ethynylphenylamino)-6,7-bis(2-methoxyethoxy)-quinazoline, reference compound], the “Relative tumor volume on Day 29 Average ± standard deviation” value in test [2] (Erlotinib hydrochloride 50 mg/kg alone) is 4.54 ± 0.18.
As to `COc1cc2nccc(Oc3ccc(NC(=O)NC4CC4)c(Cl)c3)c2cc1C(N)=O` [Compound A, 4-(3-chloro-4-(cyclopropylaminocarbonyl)aminophenoxy)-7-methoxy-6-quinolinecarboxamide], the “Relative tumor volume on Day 29 Average ± standard deviation” value in test [1] (Compound A 3 mg/kg alone, once a day for four weeks, oral) stood at 2.10 ± 0.64; in test [1] (Compound A 10 mg/kg alone, once a day for four weeks, oral), 1.79 ± 0.56; in test [1] (Compound A 30 mg/kg alone, once a day for four weeks, oral), 0.88 ± 0.27; in test [2] (Compound A 10 mg/kg alone), 1.84 ± 1.31. In addition, the “Anti-tumor effect of combination use compared with either agent alone” value in test [1] (setting [3]) and in test [2] (setting [4]) was “superior anti-tumor effect” throughout. The “Effect when used in combination with gemcitabine hydrochloride” value in test [1] (setting [3]) is “additive effect”. For the same molecule, the “Effect when used in combination with erlotinib hydrochloride” value in test [2] (setting [4]) is “additive effect”.
